Measurements taken from EP0369881A1, “Compounds derived from the 3-keto-delta 4,9-19-nor steroid structure, and their use as medicaments” (ROUSSEL-UCLAF, priority 1988, dated 1990).

Tests used:
[1] = target: T1, Récepteur progestogène de l'utérus de lapine (Oryctolagus cuniculus, UniProt P06186); assay: Relative binding affinity, competition with tritiated Product R, rabbit uterus cytosol; details: reference hormone progestérone
T1 construct: les utérus sont prélevés, pesés et homogénéisés à 0°C; from tissue; host or cells: uterus cytosol (105 000 g supernatant) of estradiol-primed immature female rabbits
T1 sequence (P06186 1-930): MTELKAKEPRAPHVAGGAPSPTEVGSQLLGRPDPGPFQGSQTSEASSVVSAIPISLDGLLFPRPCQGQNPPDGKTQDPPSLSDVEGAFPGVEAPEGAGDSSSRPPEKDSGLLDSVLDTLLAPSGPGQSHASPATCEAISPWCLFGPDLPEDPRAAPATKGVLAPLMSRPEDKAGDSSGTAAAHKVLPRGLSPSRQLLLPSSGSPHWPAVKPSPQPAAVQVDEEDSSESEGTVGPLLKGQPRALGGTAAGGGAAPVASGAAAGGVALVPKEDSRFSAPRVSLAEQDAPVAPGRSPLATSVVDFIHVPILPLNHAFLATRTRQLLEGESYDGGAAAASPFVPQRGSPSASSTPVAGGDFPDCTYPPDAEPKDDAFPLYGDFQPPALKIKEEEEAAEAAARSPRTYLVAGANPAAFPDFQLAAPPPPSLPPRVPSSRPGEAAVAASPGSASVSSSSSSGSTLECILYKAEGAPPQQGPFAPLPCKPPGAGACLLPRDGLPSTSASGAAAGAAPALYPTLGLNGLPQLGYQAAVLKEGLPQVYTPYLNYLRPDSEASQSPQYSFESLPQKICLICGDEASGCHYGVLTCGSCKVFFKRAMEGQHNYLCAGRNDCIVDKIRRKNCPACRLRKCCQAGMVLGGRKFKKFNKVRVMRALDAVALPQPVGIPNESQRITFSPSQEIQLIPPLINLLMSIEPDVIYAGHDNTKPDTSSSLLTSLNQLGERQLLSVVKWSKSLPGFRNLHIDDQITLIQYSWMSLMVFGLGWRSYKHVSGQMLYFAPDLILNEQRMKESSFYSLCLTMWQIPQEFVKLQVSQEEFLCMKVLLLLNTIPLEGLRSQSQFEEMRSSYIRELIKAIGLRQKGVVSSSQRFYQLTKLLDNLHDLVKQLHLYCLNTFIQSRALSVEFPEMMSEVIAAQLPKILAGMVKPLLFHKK
Method: Récepteur progestogène de l'utérus de lapine :
Des lapines impubères d'environ 1 kg reçoivent une application cutanée de 25 microgrammes d'estradiol. 5 jours après ce traitement, les animaux sont sacrifiés, les utérus sont prélevés, pesés et homogénéisés à 0°C, à l'aide d'un Potter teflon-verre dans une solution tamponnée TS (Tris 10mM, saccharose 0,25 M, HCl pH 7,4) (1 g de tissu pour 50 ml de TS). L'homogénat est ensuite ultracentrifugé (105 000 g x 90 mn) à 0°C. Des aliquotes du surnageant ainsi obtenu, sont incubées à 0°C pendant un temps t, avec une concentration constante (T) de Produit R tritié (17,21-diméthyl 19-nor 4,9-pregnadiène-3,20-dione) en présence de concentrations croissantes (0 - 2 500. 10⁻⁹M) soit de R froid, soit de progestérone froide, soit du produit froid à tester. La concentration de R tritié lié (B) est ensuite mesurée dans chaque incubat par la technique d'adsorption au charbon dextran.
(§1) Calcul de l'affinité relative de liaison:
(§2) Le calcul de l'affinité relative de liaison (ARL) est identique pour tous les récepteurs.
(§3) On trace les 2 courbes suivantes : le pourcentage de l'hormone tritiée liée (B)/(T) [formula] en fonction du logarithme de la concentration de l'hormone de référence froide et (B)/(T) [formula] en en fonction du logarithme de la concentration du produit froid testé.
(§4) On détermine la droite d'équation I₅₀ = ( (B)/(T) [formula] max + (B)/(T) [formula] min)/2. (B)/(T) [formula] max = Pourcentage de l'hormone tritiée liée pour une incubation de cette hormone tritiée à la concentration (T). (B)/(T) [formula] min = Pourcentage de l'hormone tritiée liée pour une incubation de cette hormone tritiée à la concentration (T) en présence d'un grand excès d'hormone froide (2500.10⁻⁹M).
(§5) Les intersections de la droite I₅₀ et des courbes permettent d'évaluer les concentrations de l'hormone de référence froide (CH) et du produit froid testé (CX) qui inhibent de 50% la liaison de l'hormone tritiée sur le récepteur.
(§6) L'affinité relative de liaison (ARL) du produit testé est déterminée par l'équation [formula]

[2] = target: T2, Récepteur glucocorticoïde du thymus de rat (Rattus norvegicus, UniProt P06536); assay: Relative binding affinity, competition with tritiated dexamethasone, rat thymus cytosol; details: reference hormone dexaméthasone
T2 construct: les thymus sont prélevés et homogénéisés à 0°C; from tissue; host or cells: thymus cytosol (105 000 g supernatant) of adrenalectomised male Sprague Dawley rats
T2 sequence (P06536 1-795): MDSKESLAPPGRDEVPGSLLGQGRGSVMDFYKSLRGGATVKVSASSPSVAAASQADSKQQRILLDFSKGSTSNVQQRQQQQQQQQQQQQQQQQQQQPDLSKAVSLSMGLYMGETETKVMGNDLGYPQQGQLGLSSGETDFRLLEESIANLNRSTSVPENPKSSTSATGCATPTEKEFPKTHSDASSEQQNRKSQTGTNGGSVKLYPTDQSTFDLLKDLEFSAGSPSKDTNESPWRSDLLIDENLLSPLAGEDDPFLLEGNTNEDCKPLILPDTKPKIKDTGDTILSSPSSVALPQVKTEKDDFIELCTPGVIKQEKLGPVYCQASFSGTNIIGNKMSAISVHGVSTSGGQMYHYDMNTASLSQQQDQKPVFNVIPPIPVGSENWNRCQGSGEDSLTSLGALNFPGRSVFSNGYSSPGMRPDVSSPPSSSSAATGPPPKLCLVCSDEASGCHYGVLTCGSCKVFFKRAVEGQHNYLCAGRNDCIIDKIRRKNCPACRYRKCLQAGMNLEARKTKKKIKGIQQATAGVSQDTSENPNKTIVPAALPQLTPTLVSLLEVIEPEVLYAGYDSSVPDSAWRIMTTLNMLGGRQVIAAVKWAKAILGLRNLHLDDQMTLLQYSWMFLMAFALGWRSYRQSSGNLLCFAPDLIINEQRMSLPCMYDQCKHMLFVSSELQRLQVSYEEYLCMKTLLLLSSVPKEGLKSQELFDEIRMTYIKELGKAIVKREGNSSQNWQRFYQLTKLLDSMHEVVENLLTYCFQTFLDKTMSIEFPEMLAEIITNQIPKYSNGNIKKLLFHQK
Method: Récepteur glucocorticoïde du thymus de rat :
Des rats mâles Sprague Dawley EOPS de 160 à 200 g sont surrénalectomisés. 4 à 8 jours après cette ablation, les animaux sont sacrifiés, et les thymus sont prélevés et homogénéisés à 0°C dans un tampon Tris 10mM, saccharose 0,25M, dithiothreitol 2mM, HCl pH 7,4, à l'aide d'un Potter polyté-trafluoroéthylène-verre (1 g de tissu pour 10 ml de TS). L'homogénat est ensuite ultracentrifugé (105 000 g x 90 mn) à 0°C. Des aliquotes du surnageant ainsi obtenu, sont incubées à 0°C pendant un temps (t) avec une concentration constante (T) de dexaméthasone tritiée en présence de concentrations croissantes (O - 2 500.10⁻⁹M) soit de dexaméthasone froide, soit du produit froid à tester. La concentration de la dexaméthasone tritiée liée (B) est ensuite mesurée dans chaque incubat par la technique d'adsorption au charbon dextran.
as §1, §2, §3, §4, §5, §6

| affinité relative de liaison (ARL) Progestogène ([1]; incubation 2H at 0°C) | affinité relative de liaison (ARL) Progestogène ([1]; incubation 24H at 0°C) | affinité relative de liaison (ARL) Glucocorticoïde ([2]; incubation 1H at 0°C) | affinité relative de liaison (ARL) Glucocorticoïde ([2]; incubation 24H at 0°C) | Structure (SMILES) |
| --- | --- | --- | --- | --- |
| 72 | 86 | 133 | 99 | CSc1ccc([C@H]2C[C@@]3(C)[C@@H](CC[C@@]3(O)C#CCO)[C@@H]3CCC4=CC(=O)CCC4=C32)cc1 [Exemple 1, 17béta-hydroxy 17alpha-(3-hydroxy 1-propynyl) 11béta-[4-(méthylthio)phényl] estra-4,9-dien-3-one] |
| 55 | 225 | 142 | 169 | CSc1ccc([C@H]2C[C@@]3(C)[C@@H](CC[C@@]3(O)C#CCF)[C@@H]3CCC4=CC(=O)CCC4=C32)cc1 [Exemple 3, 17alpha-(3-fluoro 1-propynyl) 17béta-hydroxy 11béta-[4-(méthylthio)phényl] estra-4,9-dièn-3-one] |
| 70 | 351 | 156 | 139 | CSc1ccc([C@H]2C[C@@]3(C)[C@@H](CC[C@@]3(O)C#CCCl)[C@@H]3CCC4=CC(=O)CCC4=C32)cc1 [Exemple 4, 17alpha-(3-chloro 1-propynyl) 17béta-hydroxy 11béta-[4-(méthylthio)phényl] estra-4,9-dièn-3-one] |
